Data taken from article PMC7762498, “Demethoxycurcumin analogue DMC-BH exhibits potent anticancer effects on orthotopic glioblastomas” (Aging (Albany NY), 2020).
Where two headings read alike, the source gives them in different places.

Assays:
[1] = Rat pharmacokinetic study; assay type: in vivo, rats; set-up: Vz_F_obs (volume of distribution): unit not given here; conditions: for MRT last: read-out: MRTlast (mean residence time); for half-life: read-out: T1/2 (half-life) (converted)
Protocol: Rat PK studies were performed to study whether DMC-BH is more bioavailable than did DMC.
Female Sprague-Dawley (SD) rats (n = 3) were purchased from the Shanghai Experimental Animal Center of Chinese Academy of Science (Shanghai, China). After 3 days of acclimatization, DMC-BH or DMC was administered intravenously into the jugular vein catheters at a dose of 1.00 mg/kg. After oral administration, blood samples (250 μL) were collected via jugular vein catheters at 30, 60, 90, 120, 150, 180 and 240 minutes and 8, 12 and 24 hours. Plasma samples were prepared by centrifuging the blood samples at 13,000 g for 5 minutes. All plasma samples were stored immediately at -80° C until analyzed. Analytes were extracted from 100 μL of plasma with 300 μL of acetonitrile containing 125 ng/mL of the internal standard (midazolam). The samples were thoroughly mixed and centrifuged at 8,000 g. The organic extract was added to 150 μL of 5mM NH4FA and transferred to the autosampler for LC-MS/MS analysis. Multiple reaction monitoring mode, a highly specific and sensitive label-free technique was performed by scanning the most sensitive signals. The pharmacokinetic parameters were determined using non-compartmental analysis (WinNonlin, Pharsight Corporation, Mountain View, CA, USA).

[2] = BBB penetrability (brain-to-plasma AUC ratio); assay type: in vivo
Source text: To determine whether DMC-BH inhibits the growth of glioma in the brain, we assessed its octanol-water partition coefficients and BBB penetrability. The hydrophobic parameters (logP) of DMC-BH and DMC were estimated under physiological as well as in acidic and basic conditions. The logP values for DMC-BH were negative at pH 2.5 and pH 9.0, as it was an amphoteric compound. At low pH or high pH conditions, DMC-BH occurred in the form of salts, and its logP values became negative due to better solubility.
Figure 2 Octanol-water partition coefficients (logP) and BBB penetrability of DMC-BH. (A) The logP was defined as log(Coctanol/Cwater). The amount of the compound in the water phase was determined spectrophotometrically, and the amount in the octanol phase was obtained by subtracting the supernatant concentration from the total concentration. (B) The BBB penetrability was defined as a brain-to-plasma AUC(time point) ratio. Values are expressed as the means ± SEM of 3 independent experiments.

[3] = system: human glioblastoma U87-Luc cells; assay: Orthotopic glioblastoma xenograft (BLI, immunohistochemistry); assay type: in vivo, mice; conditions: for tumor growth (BLI): U87-Luc orthotopic xenograft, nude mice, 20 mg/kg intraperitoneal; for percentage of TUNEL-positive cells / Ki67-positive rate: orthotopic xenograft tissue, 20 mg/kg; for percentage of TUNEL-positive cells: control 3.30% ± 0.26%; for Ki67-positive rate: untreated group 36.73% ± 4.82%
Protocol: We used orthotopic glioblastoma xenografts transplanted into mice by human glioblastoma U87-Luc cells to quantify the anti-tumor effect of DMC-BH and DMC. Tumor growth was recorded in vivo using Bioluminescent Imaging (BLI). […] The sizes of the tumors in the mice treated with DMC-BH were much smaller than those in the DMC-treated group or control group (P < 0.05) (Figure 4B). […] In addition, no significant body weight loss occurred in any of the three groups (P > 0.05) (Figure 4C).
Figure 4 The effects of DMC-BH and DMC on tumor growth in orthotopic glioblastoma xenograft models. (A) U87-Luc xenograft tumor-bearing nude mice were treated with 20 mg/kg DMC-BH, 20 mg/kg DMC or isometric saline for 18 days. The growth of orthotopic glioblastoma xenografts was monitored by BLI. (B) The sizes of orthotopic glioblastoma xenografts were measured using an IVIS spectrum image system. (C) The body weight of animals was measured after DMC-BH, DMC or isometric saline treatment.
Figure 5 The effects of DMC-BH and DMC on orthotopic glioblastoma growth were analyzed by immunohistochemical staining. (A) The orthotopic glioblastoma growth potential after treatment with 20 mg/kg DMC-BH or DMC treatment was evaluated by Ki67 immunohistochemistry. (B) The orthotopic glioblastoma apoptosis rate after treatment with 20 mg/kg DMC-BH or DMC was analyzed by TUNEL staining.
Thirty-six male nude mice weighing between approximately 18 g and 20 g and aged 6 to 8 weeks were divided into a control group, DMC group and DMC-BH group. The nude mice were handled under a laminar flow hood, and the feed, bedding, cage and contact instruments were all used after high pressure disinfection. The amplified U87-Luc cells were passaged in a 6 cm culture dish and placed in a 5% CO2 incubator. Ten percent chloral hydrate (40 μL/10 g) was used to anesthetize nude mice, and the nude mice were fixed on a stereotaxic apparatus when they were under deep anesthesia. We began to digest the U87-Luc cells once the mice were immobilized. The concentration of cells was 1 × 10^8/mL. Using a micro syringe, we slowly drew up 5 μL cells. Then 5 × 10^5 U87-Luc cells were injected into the caudate nucleus of the nude mice through an infusion of 1 μL/min. The orthotopic glioblastoma growth was quantified by BLI using an IVIS SPECTRUM 200 system (Perkin Elmer). Either DMC-BH or DMC was administered via intraperitoneal injection at a dose level of 20 mg/kg per injection. The drug administration started 10 days after intracranial implantation of U87-Luc cells, and in vivo imaging confirmed that the tumors were formed. The drug was administered continuously for 18 days. Control mice received an equivalent volume of physiologic solution each day. At day 18, all animals were sacrificed by CO2 inhalation.
Anesthetize mice with 2-3% isoflurane. Inject mice intraperitoneally with D-luciferin (150 μl of 15 mg/ml stock). Ten minutes after luciferin injection assess bioluminescent signal over an integration time of 10 and 60 s using a cooled charge-coupled device (CCD) camera (Spectrum; Caliper Life Sciences, Hopkinton, MA, USA). BLI was used to monitor tumor growth and response to therapy using the IVIS spectrum imaging system.
Following perfusion, the whole brain was immersed in 10% neutral paraformaldehyde buffer solution and fixed for 48 hours at room temperature. Routine dehydration and paraffin embedding were performed after fixation. Paraffin blocks were sliced to a thickness of 3 μm. We dewaxed tissue sections with xylene and rehydrated them through an ethanol gradient. The sections were then rinsed 2 times for 5 minutes with PBS. Incubate with 3% methanol solution of hydrogen peroxide for 20 minutes. Sections were then incubated in 5% goat serum for 10 minutes at room temperature. Serum was removed, and the sections were incubated with the first antibody at 4° C degree overnight. After PBS flushing, we added a secondary biotin-conjugated antibody. […]

[4] = female, Sprague-Dawley, plasma, iv, 1.00 mg/kg
[5] = female, Sprague-Dawley, plasma, po, i.g., 10.0 mg/kg

`COc1cc(C=CC(=O)CC(=O)C=Cc2ccc(O)c(CN3CCCC3)c2)ccc1O` [DMC-BH, 1-[4-Hydroxy-3-(pyrrolidin-1-ylmethyl)phenyl]-7-(4-hydroxy-3-methoxyphenyl) hepta-1,6-diene-3,5-dione] showed an AUC(0-t) [1, 4] of 634 ± 127 ng·h/mL, a Cmax ([1]; female, Sprague-Dawley, plasma, iv, 1.00 mg/kg, read-out: Cmax) of 938 ± 231 ng/mL and an MRT last [1, 4] of 1.85 ± 0.21 h. It also gave a half-life [1, 4] of 2.54 ± 0.23 h, a Tmax ([1]; female, Sprague-Dawley, plasma, iv, 1.00 mg/kg, read-out: Tmax) of 0.08 h and a Vd ([1]; female, Sprague-Dawley, plasma, iv, 1.00 mg/kg, read-out: Vz_F_obs (volume of distribution)) of 4.9 ± 0.783 L/kg. It also gave a bioavailability ([1]; female, Sprague-Dawley, plasma, oral, i.g. 10.0 mg/kg versus i.v. 1.00 mg/kg, read-out: F (percent oral bioavailability)) of 57.1%, an AUC(0-t) [1, 5] of 3620 ± 623 ng·h/mL and a CL/F ([1]; female, Sprague-Dawley, plasma, po, i.g., 10.0 mg/kg, read-out: Cl_F_obs (plasma clearance rate) (converted)) of 113 mL/min/kg. The Cmax ([1]; female, Sprague-Dawley, plasma, po, i.g., 10.0 mg/kg, read-out: Cmax) was 1260 ± 385 ng/mL, the MRT last [1, 5] was 4.21 ± 0.16 h and the half-life [1, 5] was 7.82 ± 1.54 h. It also gave a Tmax ([1]; female, Sprague-Dawley, plasma, po, i.g., 10.0 mg/kg, read-out: Tmax) of 1.45 ± 0.35 h, a Vd/F ([1]; female, Sprague-Dawley, plasma, po, i.g., 10.0 mg/kg, read-out: Vz_F_obs (volume of distribution)) of 54.4 ± 19.1 L/kg and a Cl F obs (plasma clearance rate) ([1]; i.v., 1.00 mg/kg) of 24.6 ± 4.28 mL/min/kg. For the same molecule, the “increased exposure (AUC) when administered orally compared to DMC” value ([1]; oral) was “approximately 6 fold”, the Kp at 4 h ([2]; brain and plasma) was 4.6 and the “tumor growth (BLI)” value [3] was “much greater tumor suppressive effects”. The “percentage of TUNEL-positive cells” value [3] was 28.68% ± 5.15% and the Ki67-positive rate [3] was 6.38% ± 1.38%.

For “Demethoxycurcumin [DMC, reference compound]”, the “F (percent oral bioavailability)” value ([1]; i.g. 10.0 mg/kg versus i.v. 1.00 mg/kg) was 8.3%, the AUClast ([1]; i.g., 10.0 mg/kg) was 620 ± 271 ng·h/mL and the Cl F obs (plasma clearance rate) ([1]; i.g., 10.0 mg/kg) was 12.8 ± 1.63 mL/min/kg. The Cmax ([1]; i.g., 10.0 mg/kg) was 216 ± 46 ng/mL, the “MRTlast (mean residence time)” value ([1]; i.g., 10.0 mg/kg) was 3.12 ± 0.45 h and the “T1/2 (half-life)” value ([1]; i.g., 10.0 mg/kg) was 4.32 ± 1.98 h. For the same molecule, the Tmax ([1]; i.g., 10.0 mg/kg) was 0.67 ± 0.12 h, the “Vz_F_obs (volume of distribution)” value ([1]; i.g., 10.0 mg/kg) was 6543 ± 687 and the AUClast ([1]; i.v., 1.00 mg/kg) was 742 ± 254 ng·h/mL. For the same molecule, the Cl F obs (plasma clearance rate) ([1]; i.v., 1.00 mg/kg) was 21.6 ± 3.67 mL/min/kg, the Cmax ([1]; i.v., 1.00 mg/kg) was 754 ± 275 ng/mL and the “MRTlast (mean residence time)” value ([1]; i.v., 1.00 mg/kg) was 1.32 ± 0.29 h. The “T1/2 (half-life)” value ([1]; i.v., 1.00 mg/kg) was 1.24 ± 0.21 h, the Tmax ([1]; i.v., 1.00 mg/kg) was 0.08 ± 0.00 h and the “Vz_F_obs (volume of distribution)” value ([1]; i.v., 1.00 mg/kg) was 5421 ± 432. The “brain-to-plasma AUC(4h) ratio” value [2] was 0.56, the “tumor growth (BLI)” value [3] was “slight but significant tumor inhibitory effects” and the “percentage of TUNEL-positive cells” value [3] was 3.33% ± 0.31%. The Ki67-positive rate [3] was 22.17% ± 5.10%.
